Assays:
[1] = tested on: purified CD4+ NK1.1+ NKT cells; experiment: IFN-γ release from purified NKT cells activated with α-Gal-Cer in the presence of NK cell-depleted RAG 1 KO splenocytes; type: cell-based, mice; details: 1 μM α-Gal-Cer
Description: FIGS. 5A-E. Inhibition by ATL146e of IFN-γ production by activated NKT cells. A) Purified NKT cells (200,000 per well) were incubated on immobilized anti-CD3 mAb in the presence of vehicle or 100 nM ATL146e. Supernatants were collected after 24 hours and IFN-γ concentrations were measured by ELISA. Data are shown as the mean±SEM from three independent experiments performed in triplicate. *p<0.01 vs. vehicle control as assessed by unpaired t-test B) Bulk splenocytes (300,000 cells per well) were incubated with 1 U/mL ADA and 1 nM-1 μM α-galactosylceramide in the presence of 100 nM ATL146e or vehicle. C) Bulk splenocytes (300,000 cells per well) were incubated with 1 U/mL ADA and 1 μM α-galactosylceramide in the presence or absence of varying concentrations of ATL146e±100 nM ZM241385 or vehicle. D) Bulk splenocytes (300,000 cells per well) were incubated with 1 U/mL ADA and 1 μM α-galactosylceramide in the presence or absence of 1 nM ATL146e±1 μM 8-SPT or vehicle. […] Supernatants were collected after 48 hours, and IFN-γ concentrations were determined by ELISA. […] (B-E)*p<0.01 vs. vehicle control as assessed by one way ANOVA followed by Dunnetts multiple comparison test. […]
(§1) IFN-γ concentrations in cell culture supernatants or serum samples were measured by ELISA according to the manufacturer's protocol (e-Bioscience).

[2] = tested on: invariant NKT cells in a mixed splenocyte culture; experiment: α-Gal-Cer stimulated IFN-γ production by iNKT cells in mixed splenocyte culture; type: cell-based, mice; details: for effect of antagonist on ATL146e inhibition of α-Gal-Cer mediated IFN-γ production: 1 μM α-Gal-Cer
Description: FIGS. 5A-E. Inhibition by ATL146e of IFN-γ production by activated NKT cells. A) Purified NKT cells (200,000 per well) were incubated on immobilized anti-CD3 mAb in the presence of vehicle or 100 nM ATL146e. Supernatants were collected after 24 hours and IFN-γ concentrations were measured by ELISA. Data are shown as the mean±SEM from three independent experiments performed in triplicate. *p<0.01 vs. vehicle control as assessed by unpaired t-test B) Bulk splenocytes (300,000 cells per well) were incubated with 1 U/mL ADA and 1 nM-1 μM α-galactosylceramide in the presence of 100 nM ATL146e or vehicle. C) Bulk splenocytes (300,000 cells per well) were incubated with 1 U/mL ADA and 1 μM α-galactosylceramide in the presence or absence of varying concentrations of ATL146e±100 nM ZM241385 or vehicle. D) Bulk splenocytes (300,000 cells per well) were incubated with 1 U/mL ADA and 1 μM α-galactosylceramide in the presence or absence of 1 nM ATL146e±1 μM 8-SPT or vehicle. E) Purified CD4^+NK1.1^+ T cells (150,000 cells per well) were incubated with lymphocyte and NK cell-deficient splenocytes (300,000 cells per well), 1 U/mL ADA and 1 μM α-galactosylceramide in the presence or absence of 100 nM ATL146e±100 nM ZM241385. NK1.1-expressing cells were depleted from RAG 1 KO splenocytes via FACSVantage SE Turbo Sorter. Supernatants were collected after 48 hours, and IFN-γ concentrations were determined by ELISA. Data shown are from a single experiment performed in triplicate, representative of three independent experiments; error bars indicate SEM. (B-E)*p<0.01 vs. vehicle control as assessed by one way ANOVA followed by Dunnetts multiple comparison test.
Cells were washed and resuspended in RPMI 1640 medium supplemented with 10% heat-inactivated fetal bovine serum and 1% antibiotic-antimycotic (Gibco, Carlsbad, Calif.). In vitro activation of NKT cells was achieved by co-culture for 48 hours with splenocytes and 1 nM-1 μM α-Gal-Cer (KRN7000; from Kumi Miyayama of Kirin Brewery Company, Tokyo) at 37° C. in 5% CO2. Alternately, NKT cells were activated by incubation for 24 hours in 96 well plates coated with 2-10 μg/mL immobilized anti-CD3 mAb (BD Biosciences) at 37° C. in 5% CO2. All in vitro T cell activation experiments were performed with the addition of 1 U/mL adenosine deaminase (ADA) (Roche, Indianapolis, Ind.) to remove endogenous adenosine produced by the cells that may partially activate the A2AR. […]
as §1

[3] = tested on: RAG 1 KO mice reconstituted with CD4+NK1.1+ NKT cells; experiment: Hepatic IRI in RAG 1 KO mice after adoptive transfer of NKT cells: serum ALT; type: in vivo
Description: (§2) Mice were anesthetized by intraperitoneal injection of ketamine (100 mg/kg) and xylazine (10 mg/kg). Ambient temperature was controlled in the range of 24-26° C. and mice were placed on a 37° heating pad. Core body temperature of selected mice was monitored with a TH-8 Thermalert monitoring thermometer (Physitemp) and ranged from 35-36°. After midline laparotomy, a microaneurysm clip was applied to the hepatic triad above the bifurcation to clamp the flow of the hepatic artery, portal vein, and bile duct. After superfusion of the liver with warm saline, the peritoneum was closed during 72 min of ischemia. The peritoneum was then reopened and the microaneurysm clip was removed. For select experiments, animals received an i.p. loading dose (1 μg/kg) of ATL146e or vehicle control immediately after the onset of reperfusion, and a primed Alzet osmotic minipump was implanted intraperitoneally. […]
(§3) Following liver ischemia, blood was collected via retro-orbital bleed 24 hours after the initiation of reperfusion. Serum ALT was measured with a transaminase kit according to the manufacture's protocol (Pointe Scientific, Canton, Mich.). […] The plate was placed in a spectrophotometer preheated to 37° C., and the absorbance at […] was measured every minute for 10 minutes. The slope of the linear portion of the change in absorbance over time was used to calculate IU/L of ALT.

[4] = tested on: CD4+ NK1.1+ NKT cells; experiment: IFN-γ production by purified NKT cells activated on immobilized anti-CD3 mAb; type: cell-based, mice; details: Mus musculus, 100 nM, 24 hours of incubation, read-out: inhibition of TCR-stimulated IFN-γ production
Description: Wild-type, A2AR KO, or IFN-γ KO C57BL/6 mice were sacrificed and spleens removed. Splenocytes were passed through a 40 μm nylon cell strainer (BD Biosciences, San Jose, Calif.) and collected in phosphate buffered saline. Red blood cells were lysed and CD4^+ T lymphocytes were isolated with mouse CD4 subset column kits (R and D Systems, Minneapolis, Minn.) resulting in >92% pure CD4^+ T cells. The column-purified cells were stained for 30 minutes with FITC-conjugated anti-mouse CD4 and PE-conjugated anti-mouse NK1.1 (eBioscience, San Diego, Calif.) and sorted using a FACSVantage SE Turbo Sorter (Becton Dickinson, Franklin Lakes, N.J.) to produce cell populations of ≧99.8% pure CD4^+NK1.1^+ T lymphocytes.
Cells were washed and resuspended in RPMI 1640 medium supplemented with 10% heat-inactivated fetal bovine serum and 1% antibiotic-antimycotic (Gibco, Carlsbad, Calif.). In vitro activation of NKT cells was achieved by co-culture for 48 hours with splenocytes and 1 nM-1 μM α-Gal-Cer (KRN7000; from Kumi Miyayama of Kirin Brewery Company, Tokyo) at 37° C. in 5% CO2. Alternately, NKT cells were activated by incubation for 24 hours in 96 well plates coated with 2-10 μg/mL immobilized anti-CD3 mAb (BD Biosciences) at 37° C. in 5% CO2. […]
as §1

[5] = tested on: hepatic IRI in WT C57BL/6 mice; experiment: Hepatic ischemia reperfusion injury (72 min ischemia, 24 h reperfusion): serum ALT and necrotic area; type: in vivo; details: 72 min hepatic ischemia
Description: as §2, with “removed.” for “removed. For select experiments, animals received an i.p. loading dose (1 μg/kg) of ATL146e or vehicle control immediately after the onset of reperfusion, and a primed Alzet osmotic minipump was implanted intraperitoneally.”
as §3
Mice were sacrificed and livers perfused with saline via the portal vein at various times after the initiation of reperfusion. […] Necrotic area was quantified using Adobe Photoshop software.

[6] = tested on: NKT cells isolated from post-ischemic mouse liver and liver-draining lymph nodes; experiment: Intracellular IFN-γ in NKT cells from post-ischemic liver after 2 hours of reperfusion (FACS); type: in vivo, mice; details: treatment at the initiation of reperfusion
Description: as §2, with “intraperitoneally. ATL146e (10 ng/kg/min) or vehicle was placed in the pumps and delivered until the experiment was terminated. The peritoneum was sutured and the surgical wound was closed with metal staples.” for “intraperitoneally.”
Intracellular IFN-γ was detected in liver NKT cells by FACS analysis using Fix and Perm Cell Permeabilization Reagents according to the manufacturer's protocol (Caltag Laboratories, Carlsbad, Calif.).

[7] = tested on: IFN-γ; experiment: Serum/plasma IFN-γ 24 hours after reperfusion (ELISA); type: in vivo, mice; details: 24 hours after reperfusion injury
Description: as §2, with “intraperitoneally. ATL146e (10 ng/kg/min) or vehicle was placed in the pumps and delivered until the experiment was terminated. The peritoneum was sutured and the surgical wound was closed with metal staples. Animals were sacrificed by cervical dislocation at various time points after the initiation of reperfusion and blood was collected via retro-orbital bleed.” for “intraperitoneally.”
as §1

Nc1nc(NCCc2ccc(O)cc2)nc2nc(-c3ccco3)nn12 [ZM241385, 4-(2-[7-amino-2-[2-furyl][1,2,4]triazolo[2,3-a][1,3,5]triazin-5-yl-amino]ethyl)phenol]
effect of antagonist on ATL146e reduction of IFN-γ ([1]; co-treatment with 100 nM antagonist): this effect was blocked
effect of antagonist on ATL146e inhibition of α-Gal-Cer mediated IFN-γ production ([2]; 100 nM antagonist, varying concentrations of ATL146e): causes a right shift in the ATL146e dose response curve

Cn1c(=O)c2[nH]c(-c3ccc(S(=O)(=O)O)cc3)nc2n(C)c1=O [8-SPT, 8-sulfophenyltheophylline]
effect of antagonist on ATL146e inhibition of α-Gal-Cer mediated IFN-γ production ([2]; 1 μM antagonist, 1 nM ATL146e): blocks the inhibitory effects of ATL146e

CCNC(=O)C1OC(n2cnc3c(N)nc(C#CCC4CCC(C(=O)OC)CC4)nc32)C(O)C1O (stereo not shown) [ATL146e, 4-{3-[6-Amino-9-(5-ethylcarbamoyl-3,4-dihydroxy-tetrahydro-furan-2-yl)-9H-purin-2-yl]-prop-2-ynyl}-cyclohexanecarboxylic acid methyl ester]
reduction of IFN-γ derived from NKT cell activation ([1]; 100 nM ATL146e, lymphocyte-deficient NK cell-depleted RAG 1 KO splenocytes as APCs): 93%
protection from tissue damage (serum ALT) ([3]; RAG 1 KO mice, 250,000 NKT cells from A2AR KO mice transferred): abolishes the effect of agonist administration
protection from tissue damage (serum ALT) ([3]; RAG 1 KO mice, 250,000 WT NKT cells transferred): protects from tissue damage only when WT cells are transferred
inhibition at 0.1 µM [4]: ~73%
reduction in serum ALT levels versus vehicle treated controls ([5]; 24 hours after reperfusion): approximately 58%
necrotic area ([5]; 24 hours of reperfusion, H and E staining, vehicle 79.3±3%): 6.1±0.8%
inhibition of α-Gal-Cer stimulated IFN-γ production (in words) ([2]; 100 nM, 1 nM-1 μM α-Gal-Cer, mixed splenocyte culture, 48 hours): inhibited competently
EC50 ([2]; Mus musculus, NKT, stimulated by 1 μM α-Gal-Cer, mixed splenocytes, 48 hours, read-out: EC50 of inhibition of iNKT-mediated production of IFN-γ): 0.58 nM
increase in intracellular IFN-γ expression of NKT cells (activation) [6]: significantly inhibits this activation
elevation of plasma IFN-γ concentrations [7]: diminished this elevation to a similar extent
